Experimental data from PubChem BioAssay AID2060502 (Molecular Pharmacology Branch, DTP, NCI, 2025).

Tested on: 885724-159-R-J1-PDC complex spheroid viability
Assay: Anticancer human tumor 885724-159-R-J1-PDC patient-derived pancreatic adenocarcinoma cell line growth inhibition [GQUAD]
Conditions: for IC50: curve of first compound; for viability, T/C: stronger effect = lower value
From the text: DNA G-quadruplex Stabilizer Agents in Combinations in Complex Spheroids
A high-throughput screen of multi-cell type tumor spheroids was designed to identify active combinations of DNA G-quadruplex stabilizer agents and targeted small molecules. Complex spheroids include a stromal component modeled by human endothelial cells (HUVEC) and fibroblasts modeled by human mesenchymal stem cells (MSCs). The concentration ranges selected for each drug and investigational agent were based upon clinically achievable concentrations if the clinical Cmax of the agent was known.
Compounds. The drugs and investigational agents: pidnarulex (CX-5461; NSC782164), APTO-253 (NSC789042), BRACO-19 (NSC847499), peposertib (NSC802822), ceralasertib (NSC780249), elimusertib (NSC800525), camonsertib (NSC841442), AZD-1390 (NSC803789), olaparib (NSC753686), talazoparib (NSC767125), ART-558 (NSC835418), sotorasib (NSC818433), MRTX-1133 (NSC836407), SN-38 (NSC673596), topotecan (NSC609699), etoposide (NSC141540), doxorubicin (NSC123127), gemcitabine (NSC613327), 5-fluorouracil (NSC19893), paclitaxel (NSC125973), vemurafenib (NSC761431), panobinostat (NSC761190), R-306465 (JNJ-16241199; NSC773264), adavosertib (NSC754352), TP-3654 (NSC805149), carboplatin (NSC241240), KSQ-4279 (NSC840948), and staurosporine (NSC755774) were obtained from the National Cancer Institute (NCI) Developmental Therapeutics Program Chemical Repository (34). The FDA-approved anticancer drug set is available from the NCI Developmental Therapeutics Program. […] The stock solutions were prepared in dimethyl sulfoxide (DMSO, Sigma-Aldrich, St. Louis, MO, cat. D2650) at 800-fold the tested concentration and stored at -70 degrees C prior to their use. All drugs and investigational agents were tested over a range starting from a high concentration at or near the clinical Cmax and decreasing in half-log increments. If the clinical Cmax for an agent had not been determined, the highest concentration tested was 10 microM.
2.3 Cell Culture. All cells were maintained in an incubator at 37 degrees C and 5% CO2 with 95% humidity. The PDC lines were cultured according to standard operating procedures established by the NCI PDMR. All PDCs were thawed and cultured in Matrigel-coated flasks prepared with a working solution of 1X Ham's F-12 nutrient mix, without supplementation (Invitrogen, cat. 11765054), 100 U/mL penicillin-streptomycin (Invitrogen, cat. 15140122), and 2.5% Matrigel (Corning Inc., cat. 354248) for the first three passages. The 857933-349-R-J2-PDC line was cultured in 6C/Colon 1B media, which includes advanced DMEM/F-12 (Thermo Fisher Scientific, cat. 12634028), 10 mM HEPES (Thermo Fisher Scientific, cat. 15630080), 1X GlutaMAX supplement (Thermo Fisher Scientific, cat. 35050061), 0.1 mg/mL primocin (InvivoGen, cat. ant-pm-2), 10% defined fetal bovine serum, heat inactivated (HyClone Laboratories Inc., cat. SH30070.03HI), 50% L-WRN conditioned media (ATCC, cat. CRL-3276), 1.25 mM N-Acetyl-L-cysteine (Sigma-Aldrich, cat. A9165), 10 mM nicotinamide (Sigma-Aldrich, cat. N0636), 1X B-27 supplement (Thermo Fisher Scientific, cat. 17504044), 1X N-2 supplement (Thermo Fisher Scientific, cat. 17502048), 10 microM Y-27632 dihydrochloride (Tocris Bioscience, cat. 1254), and 50 ng/mL human EGF recombinant protein (Thermo Fisher Scientific, cat. PHG0311). The 485176-168-R4-J1-PDC line was cultured in Panc media, which includes all 6C/Colon 1B media components plus 100 ng/mL human FGF-10 (Thermo Fisher Scientific, cat. 100-26), 500 nM SB-431542 (Selleckchem, cat. S1067), and gastrin (Tocris, cat. 3006).
[…]

[1] = second compound 0.0316 µM, first compound 0.0316 µM
[2] = second compound 0.0316 µM, first compound 0.316 µM
[3] = second compound 0.1 µM, first compound 0.0316 µM
[4] = second compound 0.1 µM, first compound 0.316 µM
[5] = second compound 0.316 µM, first compound 0.0316 µM
[6] = second compound 0.316 µM, first compound 0.316 µM
[7] = second compound 1 µM, first compound 0.0316 µM
[8] = second compound 1 µM, first compound 0.316 µM
[9] = second compound 3.16 µM, first compound 0.0316 µM
[10] = second compound 3.16 µM, first compound 0.316 µM
[11] = second compound 10 µM, first compound 0.0316 µM
[12] = second compound 10 µM, first compound 0.316 µM
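Further: spheroids exposed to agents for seven days before readout.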
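Wherever viability, T/C is given: percent of vehicle control viability where 100% = DMSO wells.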

In the case of `CCc1c2c(nc3ccc(O)cc13)-c1cc3c(c(=O)n1C2)COC(=O)[C@]3(O)CC` + CN(C)c1ccc(Nc2c3ccc(NC(=O)CCN4CCCC4)cc3nc3cc(NC(=O)CCN4CCCC4)ccc23)cc1, the IC50 (second compound 0.0316 µM) is reported as 56.8 nM, the IC50 (second compound 0.1 µM) is reported as 59.5 nM and the IC50 (second compound 0.316 µM) is reported as 48.8 nM. The IC50 (second compound 1 µM) was 23.8 nM, the IC50 (second compound 3.16 µM) was 21.7 nM and the IC50 (second compound 10 µM) was 20 nM. The viability, T/C (second compound 0.0316 µM, first compound 0.000999 µM) was 93.4%, the viability, T/C (second compound 0.0316 µM, first compound 0.00316 µM) was 78.9% and the viability, T/C (second compound 0.0316 µM, first compound 0.00999 µM) was 66.8%. The viability, T/C [1] was 56.9%, the viability, T/C (second compound 0.0316 µM, first compound 0.0999 µM) was 50.8% and the viability, T/C [2] was 9.22%. It also gave a viability, T/C (second compound 0.1 µM, first compound 0.000999 µM) of 93.7%, a viability, T/C (second compound 0.1 µM, first compound 0.00316 µM) of 72.2% and a viability, T/C (second compound 0.1 µM, first compound 0.00999 µM) of 63.6%. For the same compound, the viability, T/C [3] was 59.7%, the viability, T/C (second compound 0.1 µM, first compound 0.0999 µM) was 51.1% and the viability, T/C [4] was 7.61%. It also gave a viability, T/C (second compound 0.316 µM, first compound 0.000999 µM) of 83.1%, a viability, T/C (second compound 0.316 µM, first compound 0.00316 µM) of 73.1% and a viability, T/C (second compound 0.316 µM, first compound 0.00999 µM) of 63.9%. The viability, T/C [5] was 48.1%, the viability, T/C (second compound 0.316 µM, first compound 0.0999 µM) was 51.6% and the viability, T/C [6] was 9.1%. It also gave a viability, T/C (second compound 1 µM, first compound 0.000999 µM) of 83.3%, a viability, T/C (second compound 1 µM, first compound 0.00316 µM) of 65% and a viability, T/C (second compound 1 µM, first compound 0.00999 µM) of 56.6%. For the same compound, the viability, T/C [7] was 47.4%, the viability, T/C (second compound 1 µM, first compound 0.0999 µM) was 41.8% and the viability, T/C [8] was 9.11%. For the same compound, the viability, T/C (second compound 3.16 µM, first compound 0.000999 µM) was 67.1%, the viability, T/C (second compound 3.16 µM, first compound 0.00316 µM) was 60.4% and the viability, T/C (second compound 3.16 µM, first compound 0.00999 µM) was 53.7%. The viability, T/C [9] was 42.7%, the viability, T/C (second compound 3.16 µM, first compound 0.0999 µM) was 40.1% and the viability, T/C [10] was 8.41%. For the same compound, the viability, T/C (second compound 10 µM, first compound 0.000999 µM) was 71%, the viability, T/C (second compound 10 µM, first compound 0.00316 µM) was 70.1% and the viability, T/C (second compound 10 µM, first compound 0.00999 µM) was 50.2%. The viability, T/C [11] was 42.9%, the viability, T/C (second compound 10 µM, first compound 0.0999 µM) was 39.2% and the viability, T/C [12] was 9.18%.

For `COc1cc(C2c3cc4c(cc3C(OC3OC5COC(C)OC5C(O)C3O)C3COC(=O)C23)OCO4)cc(OC)c1O` (centres undefined) + CN(C)c1ccc(Nc2c3ccc(NC(=O)CCN4CCCC4)cc3nc3cc(NC(=O)CCN4CCCC4)ccc23)cc1, the IC50 (second compound 0.0316 µM) was > 10000 nM, the IC50 (second compound 0.1 µM) was > 10000 nM and the IC50 (second compound 0.316 µM) was > 10000 nM. The IC50 (second compound 1 µM) was > 10000 nM, the IC50 (second compound 3.16 µM) was > 10000 nM and the IC50 (second compound 10 µM) was > 10000 nM. The viability, T/C [1] was 94.3%, the viability, T/C (second compound 0.0316 µM, first compound 0.1 µM) was 90.8% and the viability, T/C [2] was 84.4%. It also gave a viability, T/C (second compound 0.0316 µM, first compound 1 µM) of 87.6%, a viability, T/C (second compound 0.0316 µM, first compound 3.16 µM) of 73.3% and a viability, T/C (second compound 0.0316 µM, first compound 10 µM) of 72.6%. It also gave a viability, T/C [3] of 114%, a viability, T/C (second compound 0.1 µM, first compound 0.1 µM) of 87.2% and a viability, T/C [4] of 83.2%. The viability, T/C (second compound 0.1 µM, first compound 1 µM) was 81.8%, the viability, T/C (second compound 0.1 µM, first compound 3.16 µM) was 80.6% and the viability, T/C (second compound 0.1 µM, first compound 10 µM) was 69.4%. For the same compound, the viability, T/C [5] was 104%, the viability, T/C (second compound 0.316 µM, first compound 0.1 µM) was 82.9% and the viability, T/C [6] was 90.8%. The viability, T/C (second compound 0.316 µM, first compound 1 µM) was 89.5%, the viability, T/C (second compound 0.316 µM, first compound 3.16 µM) was 76.3% and the viability, T/C (second compound 0.316 µM, first compound 10 µM) was 64.2%. The viability, T/C [7] was 91.6%, the viability, T/C (second compound 1 µM, first compound 0.1 µM) was 86.1% and the viability, T/C [8] was 70.4%. For the same compound, the viability, T/C (second compound 1 µM, first compound 1 µM) was 76.6%, the viability, T/C (second compound 1 µM, first compound 3.16 µM) was 76% and the viability, T/C (second compound 1 µM, first compound 10 µM) was 60.4%. It also gave a viability, T/C [9] of 73.1%, a viability, T/C (second compound 3.16 µM, first compound 0.1 µM) of 63.1% and a viability, T/C [10] of 69.5%. For the same compound, the viability, T/C (second compound 3.16 µM, first compound 1 µM) was 56.6%, the viability, T/C (second compound 3.16 µM, first compound 3.16 µM) was 63.4% and the viability, T/C (second compound 3.16 µM, first compound 10 µM) was 57.8%. The viability, T/C [11] was 73.4%, the viability, T/C (second compound 10 µM, first compound 0.1 µM) was 74% and the viability, T/C [12] was 68.2%. The viability, T/C (second compound 10 µM, first compound 1 µM) was 82.6%, the viability, T/C (second compound 10 µM, first compound 3.16 µM) was 71.4% and the viability, T/C (second compound 10 µM, first compound 10 µM) was 56.6%.
